One series deals with eye. Briefly: Eye irritation.
In the next series the test system is rabbit skin. Briefly: Primary Skin Irritation.
Another series is described as follows: Acute Oral LD50. The conditions noted are these: rat, in vivo.

Molecules are shown by their SMILES.

Turning to `CCCCOC(=O)C1(Cl)OC(Cl)C(Cl)C1Cl` (stereo not drawn) [UKU, Butyl 2,3,4,5-Tetrachloro-2,3,4,5, Tetrahydro-2-Furoate], the “Ames Test, mutagenicity” value in “Ames Test (mutagenicity)” is listed as “negative”.

Turning to `O=C(OCC1(Cl)OC(Cl)C(Cl)C1Cl)C1(Cl)OC(Cl)C(Cl)C1Cl` (stereo not drawn) [ZXU, Tetrachlorotetrahydrofurfuryl Tetrachlorotetrahydrofuroate], the Eye irritation result is on record as “severe irritant” in the series with eye (left in without washout) and “Mild irritant” in the series with eye (material washed out 4 seconds after introduction). Besides, the “Primary Skin Irritation” value with rabbit skin was “Moderate irritant”. For the same compound, the “Ames Test, mutagenicity” value in “Ames Test (mutagenicity)” was “negative”. The compound further yielded an LD50 in “Acute Oral LD50” of 1100 ± 150 mg/kg.

As usually defined, the LD50 is the dose expected to kill half of the subjects tested. Read a low LD50 as a more toxic substance.
